The results in this text go back to PubChem BioAssay (NCI).

Test systems include RXF 393 renal; SNB-19 CNS; HCT-116 colon; T-47D breast; HCT-15 colon; EKVX NSCLC; UACC-257 melanoma; SF-268 CNS; SF-295 CNS.
What all share (assay): growth of human tumour cells (NCI), 48 h

Molecules are shown by their SMILES.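 Each compound was tested at five concentrations against cells in 96-well plates for 48 hours. The concentration for 50% growth inhibition is given as GI50. TGI denotes the concentration required for complete inhibition of growth.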

Regarding `COc1cc2nc(-c3ccc(Cl)cc3)cc(OCCCN3CCCCC3)c2cc1OC`, the GI50 in the assay with RXF 393 renal was 1.08 µM; in the assay with SNB-19 CNS, 2.98 µM; with HCT-116 colon it was 0.828 µM; in the assay with T-47D breast it was 1.31 µM; in the assay with HCT-15 colon, 0.604 µM; with EKVX NSCLC, 1.47 µM. Also, the results for the GI50 with UACC-257 melanoma, in the assay on SF-268 CNS and with SF-295 CNS were 1.92 µM, 3.2 µM and 1.21 µM, respectively. Also, the TGI in the assay with RXF 393 renal is 3.9 µM; in the assay with SNB-19 CNS, more than 100 µM; in the assay with HCT-116 colon, more than 100 µM; with T-47D breast it was more than 100 µM; in the assay on HCT-15 colon it was more than 100 µM; in the assay on EKVX NSCLC, more than 100 µM. Also, the TGI is 4.46 µM in the assay on UACC-257 melanoma, more than 100 µM with SF-268 CNS and 2.81 µM in the assay on SF-295 CNS.
Take `O=C(/C=C/c1ccccc1O)c1ccccc1O`: the TGI in the assay on RXF 393 renal, in the assay on SNB-19 CNS, with HCT-116 colon, in the assay on HCT-15 colon, with EKVX NSCLC and in the assay on UACC-257 melanoma was more than 100 µM each time. Besides, the TGI in the assay with SF-268 CNS and with SF-295 CNS was more than 100 µM each time.
In the case of `O=S1(=O)C[C@H](O)[C@H](O)CS1`, the TGI with RXF 393 renal, with SNB-19 CNS, in the assay with HCT-116 colon, with EKVX NSCLC, with UACC-257 melanoma and with SF-268 CNS was more than 100 µM each time. In the assay with SF-295 CNS, the TGI was more than 100 µM.
With `Cc1cc([N+](=O)[O-])ccc1Nc1cccc(Cl)c1C`, the TGI was 34.5 µM with RXF 393 renal; 42.9 µM with SNB-19 CNS; 29.6 µM in the assay with HCT-116 colon; 35 µM in the assay on HCT-15 colon; 49.8 µM with EKVX NSCLC; 40.4 µM in the assay on UACC-257 melanoma. Further, the TGI with SF-268 CNS is 35.8 µM; in the assay on SF-295 CNS it was 34.6 µM.
As for `CCCN=C(N)NC#N`, the TGI is more than 100 µM in the assay on RXF 393 renal; more than 100 µM in the assay on SNB-19 CNS; more than 100 µM in the assay with HCT-116 colon; 38.2 µM in the assay on HCT-15 colon; more than 100 µM in the assay on EKVX NSCLC; more than 100 µM in the assay on UACC-257 melanoma. The TGI with SF-268 CNS and in the assay on SF-295 CNS was more than 100 µM each time.
With `O=c1[nH]c(=O)n(C2OC(CO)C(O)C2O)cc1NN=NCc1ccccc1` (centres undefined), the TGI in the assay on RXF 393 renal is more than 100 µM; in the assay on SNB-19 CNS, more than 100 µM; in the assay with HCT-116 colon, more than 80.1 µM; with HCT-15 colon it was more than 100 µM; in the assay with EKVX NSCLC, more than 100 µM; in the assay with UACC-257 melanoma, more than 100 µM. The TGI in the assay with SF-268 CNS and in the assay on SF-295 CNS was more than 100 µM each time.
For `O=C(CCn1[nH]c(=O)c(Cl)c(Cl)c1=O)NO`, the TGI in the assay with RXF 393 renal, in the assay on SNB-19 CNS, in the assay with HCT-15 colon, with EKVX NSCLC, in the assay with UACC-257 melanoma and in the assay with SF-268 CNS was more than 100 µM each time. Moreover, the TGI in the assay with SF-295 CNS is more than 100 µM.
As to `Cc1ccc(Cc2c(=O)[nH]nc3ccccc23)cc1`, the TGI with SNB-19 CNS, with HCT-116 colon, with HCT-15 colon, with EKVX NSCLC, in the assay with UACC-257 melanoma and with SF-268 CNS was more than 100 µM in each case. This compound registered a TGI in the assay on SF-295 CNS of more than 100 µM.
On to `CC(C)(C)CC(C)(C)c1cc2c(O)c(c1)Cc1cc(C(C)(C)CC(C)(C)C)cc(c1O)Cc1cc(C(C)(C)CC(C)(C)C)cc(c1O)Cc1cc(C(C)(C)CC(C)(C)C)cc(c1O)C2`, for which the TGI with RXF 393 renal, in the assay with SNB-19 CNS, in the assay with HCT-116 colon, in the assay with HCT-15 colon, in the assay with EKVX NSCLC and in the assay with UACC-257 melanoma was more than 100 µM throughout. The TGI with SF-268 CNS and with SF-295 CNS was more than 100 µM throughout.
`CCCCC(C(=O)C(=O)NC1C2CC3CC(C2)CC1C3)C(=O)C(C)C` (centres undefined): the TGI in the assay on RXF 393 renal, in the assay with SNB-19 CNS, in the assay on HCT-116 colon, in the assay on HCT-15 colon, with EKVX NSCLC and in the assay with UACC-257 melanoma was more than 100 µM throughout. Further, the TGI in the assay on SF-268 CNS and with SF-295 CNS was more than 100 µM each time.
As to `CN(C)/C=N/c1nc2c(ncn2C2OC(CO)C(O)C2O)c(=O)[nH]1` (centres undefined), the TGI with RXF 393 renal, with SNB-19 CNS, with HCT-116 colon, with HCT-15 colon, with EKVX NSCLC and with UACC-257 melanoma was more than 100 µM in each case. Also, the TGI in the assay on SF-268 CNS and in the assay on SF-295 CNS was more than 100 µM throughout.
Regarding `CN(C)c1ccc(C(C=C2c3ccccc3Sc3ccccc32)=C(C#N)C#N)cc1`, the TGI with RXF 393 renal, in the assay with SNB-19 CNS, with HCT-116 colon, with HCT-15 colon, with EKVX NSCLC and in the assay on UACC-257 melanoma was more than 100 µM each time. Moreover, the TGI in the assay on SF-268 CNS and in the assay on SF-295 CNS was more than 100 µM in each case.
Turning to `Cc1cc(CC(O)c2ccc(Cl)c(Cl)c2)nc(=O)[nH]1` (centres undefined), the TGI in the assay with SNB-19 CNS was more than 100 µM; with HCT-116 colon it was 54.2 µM; in the assay with HCT-15 colon it was more than 100 µM; with EKVX NSCLC, 96.7 µM; in the assay with UACC-257 melanoma it was more than 100 µM; in the assay on SF-268 CNS, more than 100 µM. In the assay on SF-295 CNS, this compound gave a TGI of 90 µM.
On to `N#Cc1nc(Nc2cccc3ccccc23)sc1N`, for which the TGI in the assay on SNB-19 CNS is more than 100 µM; with HCT-116 colon it was more than 100 µM; in the assay with HCT-15 colon, more than 100 µM; with UACC-257 melanoma it was 41.1 µM; in the assay with SF-268 CNS, more than 100 µM; in the assay on SF-295 CNS, more than 100 µM.
For `COC(=O)c1cc2c(s1)C(=O)c1ccccc1-2`, the TGI in the assay with RXF 393 renal, in the assay with SNB-19 CNS, with HCT-116 colon, with HCT-15 colon, with EKVX NSCLC and with UACC-257 melanoma was more than 100 µM throughout. The TGI with SF-268 CNS and in the assay on SF-295 CNS was more than 100 µM throughout.
Turning to `Cc1nn(-c2ccccc2)c2nc(N3CCOCC3)nnc12`, the TGI in the assay on RXF 393 renal, with SNB-19 CNS, in the assay on HCT-116 colon, in the assay with HCT-15 colon, in the assay with EKVX NSCLC and in the assay with UACC-257 melanoma was more than 100 µM throughout. Moreover, the TGI with SF-268 CNS and in the assay on SF-295 CNS was more than 100 µM each time.
Take `Cc1ccc(S(=O)(=O)N(CC(=O)O)c2ccccc2)cc1`: the TGI in the assay on RXF 393 renal, in the assay with SNB-19 CNS, in the assay with HCT-15 colon, with EKVX NSCLC, with UACC-257 melanoma and in the assay with SF-268 CNS was more than 100 µM in each case. In the assay with SF-295 CNS, this compound had a TGI of more than 100 µM.
